PubChem BioAssay AID488788 (Broad Institute, 2010)
Inconclusive results are not listed. Calls of active or inactive are those of the source. How the calls were made is not given here.

Target: CAAX prenyl protease 2 (Saccharomyces cerevisiae (strain ATCC 204508 / S288c)) (UniProt Q03530)
Experiment: Rce1p protease inhibitors, dose response, biochemical, plate reader, cherry-pick (AID 488788)
Details: Rce1p enzyme activity, at 10 µM (top of the series)

Chain of CAAX prenyl protease 2 (Saccharomyces cerevisiae (strain ATCC 204508 / S288c)) (Q03530 whole entry, looked up): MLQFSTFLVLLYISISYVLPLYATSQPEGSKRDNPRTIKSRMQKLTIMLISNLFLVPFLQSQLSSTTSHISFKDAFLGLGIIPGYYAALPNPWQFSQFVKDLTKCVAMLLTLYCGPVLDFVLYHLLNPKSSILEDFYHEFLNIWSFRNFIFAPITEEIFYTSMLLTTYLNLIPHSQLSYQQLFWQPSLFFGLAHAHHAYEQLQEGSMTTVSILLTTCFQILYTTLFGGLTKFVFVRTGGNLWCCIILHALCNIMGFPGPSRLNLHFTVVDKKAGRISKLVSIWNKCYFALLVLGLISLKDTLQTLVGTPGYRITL

How did the “activity change, negative = inhibition” value turn out when `COc1ccccc1-c1cc(C(=O)O)c2c(=O)n(C)c(=O)n(Cc3ccccc3)c2n1` was run?
The value was “inactive”.
